Columns and labels:
[1] = tested on: human prostate cancer LNCaP cells; assay: Cytotoxic action on LNCaP cells (WST-8, 96 hr); type: cell-based; details: 96 hr culture
Experimental: The cytotoxic action of the compound of the present invention against human cancer cells was evaluated in vitro. In this experiment, (+)-JQ1 (Nature volume 468, pages 1067-1073 (23 Dec. 2010)) known to have an inhibitory activity on the binding of BRD4 protein and a ligand therefor was used as a positive control drug. Respective cells were suspended in 10% FBS/RPMI1640, seeded in a 96 well plate and cultured at 5% CO2, 37° C. overnight. A test compound dissolved in DMSO was diluted with 10% FBS/RPMI1640 and added and the cells were further cultured for 96 hr. After culturing, the viable cell number was measured using a cell number measurement WST-8 kit (Kishida Chemical Co., Ltd.). As a control, the measurement was performed under conditions free of the test compound. The cytotoxic activity of the compound of the present invention against human prostate cancer LNCaP cells is shown in IC50 value in Table 1. The IC50 value is a concentration of the compound showing 50% cell survival rate when the cell survival rate thereof under compound untreated condition is 100%. It was calculated from the straight line connecting the cell survival rate at two points enclosing the 50% cell survival rate and the compound concentration. In addition, the cytotoxic activity against respective cancer cells of human acute myeloid leukemia MV-4-11 cell, human chronic myeloid leukemia K562 cell, human multiple myeloma MM.1S cell, human diffuse large B-cell lymphoma SU-DHL-6 cell, human T-cell leukemia Jurkat cells, human Burkitt lymphoma Raji cell, human castration-resistant prostate cancer PC-3 cell, human AR-V7 positive castration-resistant prostate cancer 22Rv1 cell, human ovarian cancer A2780 cell, human cisplatin-resistant ovarian cancer SK-OV-03 cell, human bladder cancer 5637 cell, human breast cancer ZR-75-1 cell, human triple negative breast cancer MDA-MB-231 cell, human uterus cervix cancer HeLa cell, human uterine sarcoma MES-SA cell, human stomach cancer SNU-16 cell, human non-small cell lung cancer NCI-H2126 cell, human EGFRT790M mutation-positive non-small cell lung cancer NCI-H1975 cell, human small cell lung cancer NCI-H82 cell, human large cell lung cancer NCI-H460 cell, human colon cancer HCT116 cell, human glioma U-87 MG cell, human pancreatic cancer BxPC-3 cell, human liver cancer HLF cell, human bile duct cancer HuCCT1 cell, human renal cell cancer 786-O cell, and human fibrosarcoma HT1080 cell is shown in IC50 value in Table 2.

BRD4 protein = BRD4 protein (Homo sapiens (Human), UniProt O60885); assay: BRD4 protein degradation inducing action in LNCaP cells (immunofluorescence, 6 hr); type: cell-based; details: anti-BRD4 fluorescence intensity
Experimental: The degradation inducing action of the compound of the present invention on BRD4 proteins in cancer cells was evaluated in vitro using human prostate cancer LNCaP cells. LNCaP cells were suspended in 10% FBS/RPMI1640, seeded in a 96 well Cell carrier plate (Perkin Elmer) and cultured at 5% CO2, 37° C. overnight. A test compound dissolved in DMSO was diluted with 10% FBS/RPMI1640 and added and the cells were further cultured for 6 hr. After culturing, the cells were immobilized with 4% para-formaldehyde/PBS and further subjected to a permeation treatment with 0.25% Triton X-100/PBS. Thereafter, the cells were blocked with 10% BSA/PBS, Anti-BRD4 (Sigma-Aldrich) solution was added and the cells were incubated at 4° C. overnight. Furthermore, Goat anti-Rabbit IgG(H+L) Cross-Adsorbed Secondary Antibody, Alexa Fluor 546 (Thermo Fisher Scientific) solution, 0.5 μg/mL Hoechst 33342 (Sigma-Aldrich), and 14 μM Acti-Stain 555 Fluorescent Phalloidin (Cytoskeleton) were added. After incubation for 1 hr, BRD4 protein amount was measured by Operetta (Perkin Elmer) as fluorescence intensity (excitation: 560 nm, emission: 572 nm). The BRD4 protein degradation inducing activity of the compound of the present invention in LNCaP cells is shown in DC50 value in Table 3. The DC50 value is a concentration of the compound showing 50% fluorescence intensity when the fluorescence intensity thereof under compound untreated condition is 100%. It was calculated from the straight line connecting the fluorescence intensity at two points enclosing the 50% fluorescence intensity and the compound concentration.

SMILES | IC50 [1] [nM] | DC50 (BRD4 protein) [nM]
COC(=O)C[C@@H]1N=C(c2ccc(-c3ccc(C(=O)NCc4ccc(S(=O)(=O)Nc5ccc(C)c6c(C#N)c[nH]c56)cc4)c(OC)c3)cc2)c2c(sc(C)c2C)-n2c(C)nnc21 [Example 52, methyl [(6S)-4-{4′-[({4-[(3-cyano-4-methyl-1H-indol-7-yl)sulfamoyl]phenyl}methyl)carbamoyl]-3′-methoxy[1,1′-biphenyl]-4-yl}-2,3,9-trimethyl-6H-thieno[3,2-f][1,2,4]triazolo[4,3-a][1,4]diazepin-6-yl]acetate] | 0.55 | 0.3
COC(=O)C[C@@H]1N=C(c2ccc(-c3ccc(C(=O)NCc4ccc(S(=O)(=O)Nc5ccc(C)c6c(C#N)c[nH]c56)cc4)cc3)cc2)c2c(sc(CO)c2C)-n2c(C)nnc21 [Example 55, methyl [(6S)-4-{4′-[({4-[(3-cyano-4-methyl-1H-indol-7-yl)sulfamoyl]phenyl}methyl)carbamoyl][1,1′-biphenyl]-4-yl}-2-(hydroxymethyl)-3,9-dimethyl-6H-thieno[3,2-f][1,2,4]triazolo[4,3-a][1,4]diazepin-6-yl]acetate] | 3 | 1.4
COC(=O)C[C@@H]1N=C(c2ccc(-c3ccc(C(=O)NCc4ccc(S(=O)(=O)Nc5ccc(C)c6c(C#N)c[nH]c56)cc4)s3)cc2)c2c(sc(C)c2C)-n2c(C)nnc21 [Example 59, methyl [(6S)-4-(4-{5-[({4-[(3-cyano-4-methyl-1H-indol-7-yl)sulfamoyl]phenyl}methyl)carbamoyl]thiophen-2-yl}phenyl)-2,3,9-trimethyl-6H-thieno[3,2-f][1,2,4]triazolo[4,3-a][1,4]diazepin-6-yl]acetate] | 0.23 | 0.22
COC(=O)C[C@@H]1N=C(c2ccc(-c3ccc4cc(C(=O)NCc5ccc(S(=O)(=O)Nc6ccc(C)c7c(C#N)c[nH]c67)cc5)sc4c3)cc2)c2c(sc(C)c2C)-n2c(C)nnc21 [Example 62, methyl [(6S)-4-(4-{2-[({4-[(3-cyano-4-methyl-1H-indol-7-yl)sulfamoyl]phenyl}methyl)carbamoyl]-1-benzothiophen-6-yl}phenyl)-2,3,9-trimethyl-6H-thieno[3,2-f][1,2,4]triazolo[4,3-a][1,4]diazepin-6-yl]acetate] | 0.97 | 0.64
Cc1sc2c(c1C)C(c1ccc(-c3ccc(C(=O)NCc4ccc(S(=O)(=O)Nc5ccc(C)c6c(C#N)c[nH]c56)cc4)cc3)cc1)=N[C@@H](CC(=O)OC(C)(C)C)c1nnc(C)n1-2 [Example 63, t-butyl [(6S)-4-{4′-[({4-[(3-cyano-4-methyl-1H-indol-7-yl)sulfamoyl]phenyl}methyl)carbamoyl][1,1′-biphenyl]-4-yl}-2,3,9-trimethyl-6H-thieno[3,2-f][1,2,4]triazolo[4,3-a][1,4]diazepin-6-yl]acetate] | 0.45 | 0.23
Cc1sc2c(c1C)C(c1ccc(-c3ccc(C(=O)NCCc4ccc(S(=O)(=O)Nc5ccc(C)c6c(C#N)c[nH]c56)cc4)cc3)cc1)=N[C@@H](CC(=O)OC(C)(C)C)c1nnc(C)n1-2 [Example 64, t-butyl [(6S)-4-{4′-[(2-{4-[(3-cyano-4-methyl-1H-indol-7-yl)sulfamoyl]phenyl}ethyl)carbamoyl][1,1′-biphenyl]-4-yl}-2,3,9-trimethyl-6H-thieno[3,2-f][1,2,4]triazolo[4,3-a][1,4]diazepin-6-yl]acetate] | 0.25 | 0.13
COC(=O)C[C@@H]1N=C(c2ccc(-c3cnc(C(=O)NCc4ccc(S(=O)(=O)Nc5ccc(C)c6c(C#N)c[nH]c56)cc4)cn3)cc2)c2c(sc(C)c2C)-n2c(C)nnc21 [Example 65, methyl [(6S)-4-(4-{5-[({4-[(3-cyano-4-methyl-1H-indol-7-yl)sulfamoyl]phenyl}methyl)carbamoyl]pyrazin-2-yl}phenyl)-2,3,9-trimethyl-6H-thieno[3,2-f][1,2,4]triazolo[4,3-a][1,4]diazepin-6-yl]acetate] | 0.071 | 0.036
COC(=O)C[C@@H]1N=C(c2ccc(-c3ccc(C(=O)N[C@H](C)c4ccc(S(=O)(=O)Nc5ccc(C)c6c(C#N)c[nH]c56)cc4)c(F)c3)cc2)c2c(sc(C)c2C)-n2c(C)nnc21 [Example 69, methyl [(6S)-4-(4′-{[(1R)-1-{4-[(3-cyano-4-methyl-1H-indol-7-yl)sulfamoyl]phenyl}ethyl]carbamoyl}-3′-fluoro[1,1′-biphenyl]-4-yl)-2,3,9-trimethyl-6H-thieno[3,2-f][1,2,4]triazolo[4,3-a][1,4]diazepin-6-yl]acetate] | 0.12 | 0.056
COC(=O)C[C@@H]1N=C(c2ccc(-c3ccc(C(=O)N[C@H](C)c4ccc(S(=O)(=O)Nc5ccc(C)c6c(C#N)c[nH]c56)cc4)c(Cl)c3)cc2)c2c(sc(C)c2C)-n2c(C)nnc21 [Example 70, methyl [(6S)-4-(3′-chloro-4′-{[(1R)-1-{4-[(3-cyano-4-methyl-1H-indol-7-yl)sulfamoyl]phenyl}ethyl]carbamoyl}[1,1′-biphenyl]-4-yl)-2,3,9-trimethyl-6H-thieno[3,2-f][1,2,4]triazolo[4,3-a][1,4]diazepin-6-yl]acetate] | 0.23 | 0.13
Cc1sc2c(c1C)C(c1ccc(-c3cc(Cl)c(C(=O)NCc4ccc(S(=O)(=O)Nc5ccc(C)c6c(C#N)c[nH]c56)cc4)cc3F)cc1)=N[C@@H](C)c1nnc(C)n1-2 [Example 71, 5-chloro-N-({4-[(3-cyano-4-methyl-1H-indol-7-yl)sulfamoyl]phenyl}methyl)-2-fluoro-4′-[(6S)-2,3,6,9-tetramethyl-6H-thieno[3,2-f][1,2,4]triazolo[4,3-a][1,4]diazepin-4-yl][1,1′-biphenyl]-4-carboxamide] | 0.61 | 0.32
Cc1sc2c(c1C)C(c1ccc(-c3cc(F)c(C(=O)NCc4ccc(S(=O)(=O)Nc5ccc(C)c6c(C#N)c[nH]c56)cc4)c(Cl)c3)cc1)=N[C@@H](C)c1nnc(C)n1-2 [Example 72, 3-chloro-N-({4-[(3-cyano-4-methyl-1H-indol-7-yl)sulfamoyl]phenyl}methyl)-5-fluoro-4′-[(6S)-2,3,6,9-tetramethyl-6H-thieno[3,2-f][1,2,4]triazolo[4,3-a][1,4]diazepin-4-yl][1,1′-biphenyl]-4-carboxamide] | 5.5 | 65
Cc1sc2c(c1C)C(c1ccc(-c3ccc(C(=O)NCc4ccc(S(=O)(=O)Nc5ccc(C)c6c(C#N)c[nH]c56)cc4)cc3)cc1)=N[C@@H](CC#N)c1nnc(C)n1-2 [Example 73, N-({4-[(3-cyano-4-methyl-1H-indol-7-yl)sulfamoyl]phenyl}methyl)-4′-[(6S)-6-(cyanomethyl)-2,3,9-trimethyl-6H-thieno[3,2-f][1,2,4]triazolo[4,3-a][1,4]diazepin-4-yl][1,1-biphenyl]-4-carboxamide] | 1.7 | 0.75
COC(=O)C[C@@H]1N=C(c2ccc(-c3ccc(C(=O)NCc4ccc(S(=O)(=O)Nc5ccc(C)c6c(C#N)c[nH]c56)cc4)cc3C)cc2)c2c(sc(C)c2C)-n2c(C)nnc21 [Example 75, methyl [(6S)-4-{4′-[({4-[(3-cyano-4-methyl-1H-indol-7-yl)sulfamoyl]phenyl}methyl)carbamoyl]-2′-methyl[1,1′-biphenyl]-4-yl}-2,3,9-trimethyl-6H-thieno[3,2-f][1,2,4]triazolo[4,3-a][1,4]diazepin-6-yl]acetate] | 0.47 | 0.32
